Assay results reported in ChEMBL document CHEMBL1121521, “Inhibitors of Bacillus subtilis DNA polymerase III. 6-Anilinouracils and 6-(alkylamino)uracils” (J Med Chem, 1980).

Columns and labels:
[1] = biological target: T1, DNA polymerase III PolC-type (Bacillus subtilis (strain 168), UniProt P13267); assay: Inhibition against Bacillus subtilis DNA polymerase III (wild type)
Target sequence in this assay (P13267 whole entry): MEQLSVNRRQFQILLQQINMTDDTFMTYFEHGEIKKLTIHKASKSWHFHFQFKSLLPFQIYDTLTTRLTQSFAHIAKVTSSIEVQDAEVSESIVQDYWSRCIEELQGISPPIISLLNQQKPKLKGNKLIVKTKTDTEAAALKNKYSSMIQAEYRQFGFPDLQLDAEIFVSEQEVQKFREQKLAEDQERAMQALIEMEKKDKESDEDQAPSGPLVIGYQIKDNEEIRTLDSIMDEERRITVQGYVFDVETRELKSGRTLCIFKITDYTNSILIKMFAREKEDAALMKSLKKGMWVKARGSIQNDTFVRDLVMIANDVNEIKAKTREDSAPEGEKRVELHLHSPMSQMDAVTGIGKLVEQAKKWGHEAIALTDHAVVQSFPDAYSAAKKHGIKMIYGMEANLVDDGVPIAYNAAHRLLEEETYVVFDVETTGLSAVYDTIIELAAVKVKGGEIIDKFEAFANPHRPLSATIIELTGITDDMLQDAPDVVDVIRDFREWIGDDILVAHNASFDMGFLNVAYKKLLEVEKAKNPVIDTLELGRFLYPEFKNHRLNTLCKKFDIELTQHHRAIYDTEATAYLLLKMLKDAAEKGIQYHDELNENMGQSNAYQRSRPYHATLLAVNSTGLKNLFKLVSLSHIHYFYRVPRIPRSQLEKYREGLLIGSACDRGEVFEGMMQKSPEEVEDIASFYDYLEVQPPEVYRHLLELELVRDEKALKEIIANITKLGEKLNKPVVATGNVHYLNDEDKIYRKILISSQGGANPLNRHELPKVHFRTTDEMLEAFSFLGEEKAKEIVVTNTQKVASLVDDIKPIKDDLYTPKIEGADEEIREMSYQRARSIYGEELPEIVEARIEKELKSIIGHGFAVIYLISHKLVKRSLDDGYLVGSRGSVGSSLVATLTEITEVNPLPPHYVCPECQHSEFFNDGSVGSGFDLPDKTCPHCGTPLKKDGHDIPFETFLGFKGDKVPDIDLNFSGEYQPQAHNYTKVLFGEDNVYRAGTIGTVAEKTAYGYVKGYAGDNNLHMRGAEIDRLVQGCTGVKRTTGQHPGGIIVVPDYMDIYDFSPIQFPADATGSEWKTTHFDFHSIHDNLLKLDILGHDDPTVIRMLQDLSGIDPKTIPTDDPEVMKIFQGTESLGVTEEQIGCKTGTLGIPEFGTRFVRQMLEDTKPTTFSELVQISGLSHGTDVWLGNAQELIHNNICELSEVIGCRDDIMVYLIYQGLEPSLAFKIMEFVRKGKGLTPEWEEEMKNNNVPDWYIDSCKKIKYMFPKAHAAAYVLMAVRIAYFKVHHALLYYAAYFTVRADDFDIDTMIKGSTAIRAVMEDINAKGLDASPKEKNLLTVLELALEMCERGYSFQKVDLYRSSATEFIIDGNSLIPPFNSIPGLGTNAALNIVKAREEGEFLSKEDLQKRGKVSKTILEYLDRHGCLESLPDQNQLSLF

[2] = biological target: DNA polymerase III PolC-type (Bacillus subtilis (strain 168)) (UniProt P13267); assay: Degree of resistance is the ratio between inhibition of Bacillus subtilis DNA Polymerase III azp-12 and WT.
[3] = biological target: T1, DNA polymerase III PolC-type; assay: Inhibition of Bacillus subtilis DNA polymerase III (wild type)
Target sequence in this assay (P13267 whole entry): as above

[4] = biological target: T1, DNA polymerase III PolC-type; assay: In vitro inhibition of Bacillus subtilis DNA Polymerase III/azp-12(mutant).
Target sequence in this assay (P13267 whole entry, looked up): as the sequence (P13267 whole entry) above

[5] = biological target: T1, DNA polymerase III PolC-type; assay: Inhibition of Bacillus subtilis […](wild type); NA = inactive (<10% inhibition at 1000 uM)
Target sequence in this assay (P13267 whole entry): as above

[6] = biological target: T1, DNA polymerase III PolC-type; assay: Inhibition of Bacillus subtilis DNA polymerase III (wild type); NA = inactive (<10% inhibition at 1000 uM)
Target sequence in this assay (P13267 whole entry): as above

[7] = biological target: T1, DNA polymerase III PolC-type; assay: Inhibition against Bacillus subtilis DNA Polymerase III/azp-12(mutant)
Target sequence in this assay (P13267 whole entry, looked up): as the sequence (P13267 whole entry) above

[8] = biological target: T1, DNA polymerase III PolC-type; assay: Inhibition against Bacillus subtilis DNA Polymerase III/azp-12(mutant);NA = inactive (<10% inhibition at 1000 uM)
Target sequence in this assay (P13267 whole entry, looked up): as the sequence (P13267 whole entry) above

Chain of DNA polymerase III PolC-type (Bacillus subtilis (strain 168)) (P13267 whole entry): as above

Row | Ki [1] [µM] | SMILES | Degree of resistance [2] | other results
1 | 6.8 | O=c1cc(Nc2ccc3ccccc3c2)[nH]c(=O)[nH]1 |  | 
2 | 0.63 | Cc1ccc(Nc2cc(O)nc(O)n2)cc1Cl |  | 
3 | 0.26 | Cc1ccc(Nc2cc(O)nc(O)n2)cc1CCl |  | 
4 | 101 | O=c1cc(Nc2ccc(C(F)(F)F)cc2)[nH]c(=O)[nH]1 |  | 
5 | 464 | CC(=O)Nc1ccc(Nc2cc(=O)[nH]c(=O)[nH]2)cc1C |  | 
6 | 124 | Cc1cc(C)cc(Nc2cc(=O)[nH]c(=O)[nH]2)c1 |  | 
7 | 0.93 | Oc1cc(Nc2ccc(Cl)c(Cl)c2)nc(O)n1 |  | 
8 | 1990 | Cc1ccc(Nc2cc(O)nc(O)n2)c(C)c1 |  | 
9 | 82.6 | O=c1cc(Nc2cccc3ccccc23)[nH]c(=O)[nH]1 |  | 
10 | 460 | CC(=O)Nc1cc(Nc2cc(O)nc(O)n2)ccc1C |  | 
11 | 370 | CCCCCCNc1cc(=O)[nH]c(=O)[nH]1 |  | 
12 | 78.5 | Cc1ccc(Nc2cc(=O)[nH]c(=O)[nH]2)cc1CO |  | 
13 | 0.38 | Cc1ccc(Nc2cc(=O)[nH]c(=O)[nH]2)cc1I |  | 
14 | 223 | Cc1cccc(Nc2cc(=O)[nH]c(=O)[nH]2)c1C |  | 
15 | 0.42 | Oc1cc(Nc2ccc3c(c2)CCC3)nc(O)n1 |  | 
16 | 7.6 | O=c1cc(Nc2cccc(CCl)c2)[nH]c(=O)[nH]1 |  | 
17 | 1360 | Cc1ccc(C)c(Nc2cc(O)nc(O)n2)c1 |  | 

Second part, the compound before the results:

Row | SMILES | Ki [1] [µM] | Degree of resistance [2] | other results
18 | CCCc1ccc(Nc2cc(O)nc(O)n2)cc1 |  | 0.12 | 
19 | C=CCNc1cc(O)nc(O)n1 |  |  | Ki [3]: 22400 µM
20 | CC(C)c1ccc(Nc2cc(O)nc(O)n2)cc1 |  | 0.065 | 
21 | Oc1cc(Nc2cccc(Cl)c2)nc(O)n1 | 25 | 1.7 | Ki [4]: 41.7 µM
22 | CCCCNc1cc(O)nc(O)n1 |  |  | Ki [3]: 5370 µM
23 | CCCc1ccc(Nc2cc(=O)[nH]c(=O)[nH]2)cc1 | 452 |  | Ki [4]: 54 µM
24 | Cc1cccc(Nc2cc(O)nc(O)n2)c1 |  | 4.2 | 
25 | CCNc1cc(O)nc(O)n1 |  |  | Ki [5]: Not Active
26 | Cc1cc(Nc2cc(O)nc(O)n2)ccc1Br |  | 0.85 | 
27 | Oc1ccc(Nc2cc(O)nc(O)n2)cc1 |  | 2.2 | 
28 | CCCCCNc1cc(=O)[nH]c(=O)[nH]1 |  |  | Ki [3]: 335 µM
29 | CCCCc1ccc(Nc2cc(O)nc(O)n2)cc1 |  | 0.4 | 
30 | Cc1ccc(Nc2cc(O)nc(O)n2)cc1 |  | 3.9 | 
31 | Cc1cccc(Nc2cc(=O)[nH]c(=O)[nH]2)c1 | 42.8 |  | Ki [4]: 178 µM
32 | O=c1cc(Nc2ccc(Cl)cc2)[nH]c(=O)[nH]1 |  | 0.56 | 
33 | CC(C)CCNc1cc(=O)[nH]c(=O)[nH]1 | 2400 |  | 
34 | CCCNc1cc(O)nc(O)n1 |  |  | Ki [6]: Not Active
35 | Oc1cc(Nc2cccc(I)c2)nc(O)n1 |  | 4.3 | 

Row | SMILES | Ki [1] [µM] | Degree of resistance [2] | other results
36 | Nc1ccc(Nc2cc(=O)[nH]c(=O)[nH]2)cc1 | 640 |  | Ki [7]: 3900 µM
37 | CCc1ccc(Nc2cc(O)nc(O)n2)cc1 |  | 0.3 | 
38 | Cc1cc(C)c(Nc2cc(O)nc(O)n2)c(C)c1 |  |  | Ki [5]: Not Active
39 | COc1ccc(Nc2cc(O)nc(O)n2)cc1 | 120 | 1 | Ki [4]: 120 µM
40 | O=c1cc(NCCCCCO)[nH]c(=O)[nH]1 | 13500 |  | 
41 | O=c1cc(Nc2cccc(CO)c2)[nH]c(=O)[nH]1 | 413 |  | Ki [4]: 5130 µM
42 | Oc1cc(Nc2cccc(Br)c2)nc(O)n1 | 10.3 | 2.1 | Ki [4]: 21.9 µM
43 | CCCCCCCCCCNc1cc(O)nc(O)n1 |  |  | Ki [5]: Not Active
44 | Cc1ccc(Nc2cc(=O)[nH]c(=O)[nH]2)cc1N | 122 |  | Ki [7]: 298 µM
45 | CCc1ccccc1Nc1cc(O)nc(O)n1 |  |  | Ki [5]: Not Active
46 | Oc1cccc(Nc2cc(O)nc(O)n2)c1 | 2630 |  | Ki [8]: Not Active
47 | Oc1cc(Nc2ccc(Br)cc2)nc(O)n1 |  | 0.13 | 
48 | OCc1ccc(Nc2cc(O)nc(O)n2)cc1 |  | 0.6 | 
49 | CCc1cccc(Nc2cc(O)nc(O)n2)c1 |  | 6.4 | 
50 | Cc1cc(Nc2cc(=O)[nH]c(=O)[nH]2)ccc1N | 19 |  | Ki [7]: 158 µM
51 | Cc1ccccc1Nc1cc(O)nc(O)n1 |  |  | Ki [6]: Not Active
52 | Cc1ccc(Nc2cc(O)nc(O)n2)cc1C | 0.92 | 3.9 | Ki [4]: 3.5 µM
53 | OCc1cccc(Nc2cc(O)nc(O)n2)c1 |  | 12.4 | 
